# Assay results from patent publication US9433228B2, “Method for the production of multiple-unsaturated fatty acids in transgenic organisms” (BASF Plant Science GmbH, priority 2003, dated 2016).
# Read-outs that look alike come from different tables or passages of the source.
# B1: At3g06460: Arabidopsis thaliana elongase, SEQ ID NO: 135 (protein, listed as Arabidopsis thaliana)
# chain: MASVYSTLTYWLVHHPYIANFTWTEGETLGSTVFFVFVVVSLYLSATFLLRYTVDSLPTLGPRILKPITAVHSLILFLLSLTMAVGCTLSLISSSDPKARLFDAVCFPLDVKPKGPLFFWAQVFYLSKILEFVDTLLIILNKSIQRLSFLHVYHHATVVILCYLWLRTRQSMFPVGLVLNSTVHVIMYGYYFLCAIGSRPKWKKLVTNFQMVQFAFGMGLGAAWMLPEHYFGSGCAGIWTVYFNGVFTASLLALFYNFHSKNYEKTTTSPLYKIESFIFIHGERWANKAITLFSKKND
# modifications: CDS (1)..(897) delta5-elongase
# B2: OmELO2: Oncorhynchus mykiss elongase gene product, SEQ ID NO: 51 (protein)
# chain: MASTWQSVQSMRQWILENGDKRTDPWLLVYSPMPVAIIFLLYLGVVWAGPKLMKRREPVDLKAVLIVYNFAMVCLSVYMFHEFLVTSLLSNYSYLCQPVDYSTSPLAMRMAKVCWWFFFSKVIELADTVFFILRKKNSQLTFLHVYHHGTMIFNWWAGVKYLAGGQSFFIGLLNTFVHIVMYSYYGLAALGPHTQKYLWWKRYLTSLQLLQFVLLTTHTGYNLFTECDFPDSMNAVVFAYCVSLIALFSNFYYQSYLNRKSKKT
# modifications: Oncorhynchus mykiss; CDS (1)..(795) delta5-elongase
# B3: PtD5: Phaeodactylum tricornutum Δ5-desaturase, SEQ ID NO: 5 (protein, listed as Phaeodactylum tricornutum)
# chain: MAPDADKLRQRQTTAVAKHNAATISTQERLCSLSSLKGEEVCIDGIIYDLQSFDHPGGETIKMFGGNDVTVQYKMIHPYHTEKHLEKMKRVGKVTDFVCEYKFDTEFEREIKREVFKIVRRGKDFGTLGWFFRAFCYIAIFFYLQYHWVTTGTSWLLAVAYGISQAMIGMNVQHDANHGATSKRPWVNDMLGLGADFIGGSKWLWQEQHWTHHAYTNHAEMDPDSFGAEPMLLFNDYPLDHPARTWLHRFQAFFYMPVLAGYWLSAVFNPQILDLQQRGALSVGIRLDNAFIHSRRKYAVFWRAVYIAVNVIAPFYTNSGLEWSWRVFGNIMLMGVAESLALAVLFSLSHNFESADRDPTAPLKKTGEPVDWFKTQVETSCTYGGFLSGCFTGGLNFQVEHHLFPRMSSAWYPYIAPKVREICAKHGVHYAYYPWIHQNFLSTVRYMHAAGTGANWRQMARENPLTGRA
# modifications: CDS (1)..(1410) delta5-desaturase
# B4: At3g06470: Arabidopsis thaliana elongase, SEQ ID NO: 137 (protein, listed as Arabidopsis thaliana)
# chain: MASIYSSLTYWLVNHPYISNFTWIEGETLGSTVFFVSVVVSVYLSATFLLRSAIDSLPSLSPRILKPITAVHSLILCLLSLVMAVGCTLSITSSHASSDPMARFLHAICFPVDVKPNGPLFFWAQVFYLSKILEFGDTILIILGKSIQRLSFLHVYHHATVVVMCYLWLRTRQSMFPIALVTNSTVHVIMYGYYFLCAVGSRPKWKRLVTDCQIVQFVFSFGLSGWMLREHLFGSGCTGIWGWCFNAAFNASLLALFSNFHSKNYVKKPTREDGKKSD
# modifications: CDS (1)..(837) delta5-elongase
# Legend:
# ELO(XI) = ELO(XI) expressed in yeast, conversion of starting materials; type: cell-based, Xenopus laevis; conditions: fed at in each case 250 μM
# Method: Thereafter, the FAMEs were analyzed via GLC.
# ELO(Ci) = ELO(Ci) expressed in yeast, conversion of starting materials; type: cell-based, Ciona intestinalis; conditions: fed at in each case 250 μM
# Method: (holding). […] Biochem. […] Thereafter, the FAMEs were analyzed via GLC.
# PtELO6 (Δ6-elongase) = assay: PtELO6 expressed in yeast, feeding experiment; conditions: for conversion of fatty acid fed: fed to yeast with pYES2-PtELO6; for % Elongation: fatty acid added at 250 μm
# Method: The PCR products were incubated for 30 minutes at 21° C. with the yeast expression vector pYES2.1-TOPO (Invitrogen) following the manufacturer's instructions. The PCR product (see SEQ ID NO: 192) was ligated into the vector by means of a T-overhang and the activity of a topoisomerase (Invitrogen). After the incubation, E. coli DH5α cells were transformed. Suitable clones were identified by PCR, the plasmid DNA was isolated by means of the Qiagen DNAeasy kit and verified by sequencing. The correct sequence was then transformed into the Saccharomyces strain INVSc1 (Invitrogen) by electroporation (1500 V). As a control, the blank vector pYES2.1 was transformed in parallel. Thereafter, the yeasts were plated of minimal dropout uracil medium supplemented with 2% glucose. Cells which were capable of growing in the medium without uracil thus comprise the corresponding plasmids pYES2.1 and pYES2.1-PtELO6. After the selection, in each case two transformants were chosen for the further functional expression.
# The yeast cells from the main cultures were harvested by centrifugation (100×g, 5 min, 20° C.) and washed with 100 mM NaHCO3, pH 8.0 to remove residual medium and fatty acids. Starting with the yeast cell sediments, fatty acid methyl esters (FAMEs) were prepared by acid methanolysis. To this end, the cell sediments were incubated for one hour at 80° C. together with 2 ml of 1 N methanolic sulfuric acid and 2% (v/v) of dimethoxypropane. The FAMEs were extracted twice with petroleum ether (PE). To remove nonderivatized fatty acids, the organic phases were washed in each case once with 2 ml of 100 mM NaHCO3, pH 8.0 and 2 ml of distilled water. Thereafter, the PE phases were dried with Na2SO4, evaporated under argon and taken up in 100 μl of PE. The samples were separated on a DB-23 capillary column (30 m, 0.25 mm, 0.25 μm, Agilent) in a Hewlett-Packard 6850 gas chromatograph equipped with flame ionization detector. The conditions for the GLC analysis were as follows: the oven temperature was programmed from 50° C. to 250° C. with a rate of 5° C./min and finally 10 min at 250° C. (holding).
# The signals were identified by comparing the retention times with corresponding fatty acid standards (Sigma).
# Feeding experiment: fatty acids (in bold) were added at in each case 250 μm.
# The yeasts which had been transformed with the vector pYES2-PtELO6 were grown in minimal medium in the presence of the fatty acids stated. The fatty acid methyl esters were synthesized by subjecting intact cells to acid methanolysis. Thereafter, the FAMEs were analyzed via GLC.
# TL16y2 = TL16y2 expressed in yeast, feeding experiments; type: cell-based, Thraustochytrium ssp.; conditions: in comparison with the control
# Method: The substrate specificity of BioTaurELO1 was determined after expression and feeding of various fatty acids (FIG. 6). […] After the fatty acids had been extracted from the yeasts, they were transmethylated and separated by gas chromatography. The elongation products obtained from the two fatty acids which had been fed are identified by arrows.
# The functionality and substrate specificity of TL16y2 was determined after expression and feeding of various fatty acids. […] The feeding experiments were carried-out in the same manner as described for BioTaurELO1. The substrates fed can be detected in large amounts in all transgenic yeasts. […] This means that functional expression of the gene TL16y2 has been possible.
# OtElo2.1 (Δ6-elongase) = type: cell-based, Ostreococcus tauri
# OtElo2 (Δ6-elongase) = type: cell-based, Ostreococcus tauri
# TpELO3 (Δ6-elongase) = type: cell-based, Thalassiosira pseudonana
# [1] = test system: Δ6-desaturase OtDes6.1, Δ6-elongase PSE1 and Δ5-desaturase PtD5; assay: Reconstitution of ARA and EPA pathways in yeast: OtDes6.1 with PSE1 and PtD5; type: cell-based, Saccharomyces cerevisiae; conditions: for elongation by Δ6-elongase PSE1 to DHGLA and DHSTA: products of OtDes6.1 from LA and ALA (FIG. 21)
# Text: The subsequent desaturation by the Δ5-desaturase PtD5 to give ARA and EPA, respectively, is also problem-free. Approximately 25-30% of the elongase product is desaturated (FIGS. 21 B and D).
# [2] = test system: OmElo3, EgD4 and P. tricornutum Δ5-desaturase (PtD5); assay: Reconstitution of DHA synthesis in yeast: coexpression of OmElo3, EgD4 and PtD5; type: cell-based, Saccharomyces cerevisiae; conditions: fed 18:4 ω3
# Method: The reconstitution of the biosynthesis of DHA (22:6 ω3) was carried out starting from EPA (20:5 ω3) or stearidonic acid (18:4 ω3) by coexpressing OmElo3 together with the Euglena gracilis Δ4-desaturase or the Phaeodactylum tricomutum Δ5-desaturase and the Euglena gracilis Δ4-desaturase. To this end, the expression vectors pYes2-EgD4 and pESCLeu-PtD5 were additionally constructed. The abovementioned yeast strain which is already transformed with pYes3-OtElo3 (SEQ ID NO: 55), was transformed further with pYes2-EgD4, or simultaneously with pYes2-EgD4 and pESCLeu-PtD5. […] The cultures were incubated for a further 120 hours at 15° C.
# In a further coexpression experiment, OmElo3, EgD4 and a P. tricornutum Δ5-desaturase (PtD5) were expressed together. The transgenic yeasts were fed stearidonic acid (18:4 ω3) and they were analyzed (FIG. 4). The fatty acid fed, 18:4 ω3, was elongated by OmElo3 to give 20:4 ω3 (60% elongation). The latter was desaturated by PtD5 to give 20:5 ω3. The PtD5 activity was 15%. Moreover, it was possible to elongate 20:5 ω3 by OmElo3 to give 22:5 ω3. Thereafter, the newly synthesized 22:5 ω3 was desaturated to 22:6 ω3 (DHA). Up to 0.7% of DHA was obtained in these experiments.
# TpELO1 (Δ5-elongase) = assay: TpELO1 expressed in yeast, feeding experiments; conditions: 250 μM fatty acid fed
# Method: The PCR products were incubated for 30 minutes at −21° C. with the yeast expression vector pYES2.1-TOPO (Invitrogen) following the manufacturer's instructions. The PCR product was ligated into the vector by means of a T-overhang and the activity of a topoisomerase (Invitrogen). After the incubation, E. coli DH5α cells were transformed. Suitable clones were identified by PCR, the plasmid DNA was isolated by means of the Qiagen DNAeasy kit and verified by sequencing. The correct sequence was then transformed into the Saccharomyces strain INVSc1 (Invitrogen) by electroporation (1500 V). As a control, the blank vector pYES2.1 was transformed in parallel. Thereafter, the yeasts were plated out on minimal dropout uracil medium supplemented with 2% glucose. Cells which were capable of growing in the medium without uracil thus comprise the corresponding plasmids pYES2.1, pYES2.1-TpELO1, pYES2.1-ELO2 and pYES2.1-TpELO3. After the selection, in each case two transformants were chosen for the further functional expression.
# The yeast cells from the main cultures were harvested by centrifugation (100×g, 5 min, 20° C.) and washed with 100 mM NaHCO3, pH 8.0 to remove residual medium and fatty acids. […]
# The yeasts which had been transformed with the vector pYES2-TpELO1 were grown in minimal medium in the presence of the fatty acids stated. […] Thereafter the FAMEs were analyzed by GLC.
# OtElo1 (Δ5-elongase) = type: cell-based, Ostreococcus tauri; conditions: Table 15; yeast with pOTE1
# OtElo1.2 (Δ5-elongase) = type: cell-based, Ostreococcus tauri; conditions: Table 15; yeast with pOTE1.2
# OmElo3 = OmElo3 expressed in yeast, feeding of fatty acids, GC of FAMEs; type: cell-based, Oncorhynchus mykiss; conditions: yeast with pYes3-OmElo3 and blank vector pYes2, fed 20:5 ω3
# At3g06460 = At3g06460 expressed in yeast, elongation of EPA; conditions: feeding with 250 uM EPA
# Text: (§1) To characterize the function of the A. thaliana desaturases, the open reading frame of the DNA in question is cloned downstream of the galactose-inducible GALL promoter of pYES2.1/V5-His-TOPO (Invitrogen), giving rise to the corresponding pAt60 and pAt70 clones.
# (§2) The Saccharomyces cerevisiae strain 334 is transformed with the vectors pAt60 and pAt70, respectively by electroporation (1500 V). A yeast which is transformed with the blank vector pYES2.1 is used for control purposes. The transformed yeasts are selected on complete minimal medium (CMdum) agar plates supplemented with 2% glucose, but lacking uracil. After the selection, in each case three transformants are chosen for the further functional expression.
# (§3) To express the At elongases, precultures of in each case 5 ml of CMdum liquid medium supplemented with 2% (w/v) raffinose, but without uracil, were inoculated with the selected transformants and incubated for 2 hours at 30° C., 200 rpm.
# (§4) 5 ml of CMdum liquid medium (without uracil) supplemented with 2% of raffinose and 300 μM various fatty acids were then inoculated with the precultures to an OD600 of 0.05. Expression was induced by the addition of 2% (w/v) galactose. The cultures were incubated for a further 96 hours at 20° C. […]
# OmELO2 = OmELO2 expressed in yeast, feeding of fatty acids; type: cell-based, Oncorhynchus mykiss; conditions: expression in yeast
# At3g06470 = At3g06470 expressed in yeast, elongation of EPA; conditions: feeding with 250 uM EPA
# Text: as §1, §2, §3, §4
molecule,measurement,setting,value
"CCCCCCCCCCCCCCCC(=O)O [16:0, palmitic acid]",Conversion of the starting materials by ELO(XI) in %,ELO(XI),3%
same,Conversion of the starting materials by ELO(Ci) in %,ELO(Ci),0%
"CCCCCCCCCCCCCCCCCC(=O)O [18:0, stearic acid]",Conversion of the starting materials by ELO(XI) in %,ELO(XI),2%
same,Conversion of the starting materials by ELO(Ci) in %,ELO(Ci),0%
CCCCCCC=CCCCCCCCCCC(=O)O [18:1^Δ11],conversion of fatty acid fed,PtELO6 (Δ6-elongase),not converted
"CCCCC/C=C\C/C=C\CCCCCCCC(=O)O [18:2^Δ9,12, linoleic acid]",% Elongation,PtELO6 (Δ6-elongase),0.99%
"CCCCC/C=C\C/C=C\CC/C=C\CCCC(=O)O [18:3^Δ5,9,12, pinolenic acid]",Conversion of the starting materials by ELO(XI) in %,ELO(XI),13%
same,Conversion of the starting materials by ELO(Ci) in %,ELO(Ci),38%
"CCCCC/C=C\C/C=C\C/C=C\CCCCC(=O)O [18:3^Δ6,9,12, γ-linolenic acid]",% conversion rate,TL16y2; 250 μM fatty acid fed,74.9%
same,Conversion rate (in %) OtELO2.1,OtElo2.1 (Δ6-elongase),55.7%
same,Conversion rate (in %) OtElo2,OtElo2 (Δ6-elongase),15.3%
same,% conversion rate,TpELO3 (Δ6-elongase),75%
same,elongation by Δ6-elongase PSE1 to DHGLA and DHSTA,[1],elongated almost quantitatively
"CC/C=C\C/C=C\C/C=C\C/C=C\CCCCC(=O)O [18:4^Δ6,9,12,15, stearidonic acid]",% conversion rate,TL16y2; 250 μM fatty acid fed,79.4%
same,Conversion rate (in %) OtELO2.1,"OtElo2.1 (Δ6-elongase); Table 16, yeast with pOTE2.1",70.4%
same,Conversion rate (in %) OtElo2,"OtElo2 (Δ6-elongase); Table 16, yeast with pOTE2",21.1%
same,% conversion rate,TpELO3 (Δ6-elongase); 250 μM of each fatty acid fed,85%
same,elongation by Δ6-elongase PSE1 to DHGLA and DHSTA,[1],elongated almost quantitatively
same,% Elongation,PtELO6 (Δ6-elongase),76.32%
same,elongation by OmElo3 to 20:4 ω3,[2],60%
"CCCCC/C=C\C/C=C\C/C=C\CCCCCCC(=O)O [20:3^Δ8,11,14, dihomo-γ-linolenic acid]",Conversion of the starting materials by ELO(XI) in %,ELO(XI),5%
same,Conversion of the starting materials by ELO(Ci) in %,ELO(Ci),10%
same,conversion of fatty acid fed,PtELO6 (Δ6-elongase),not converted
"CC/C=C\C/C=C\C/C=C\CCCCCCCCCC(=O)O [20:3^Δ11,14,17]",Conversion of the starting materials by ELO(Ci) in %,ELO(Ci),8%
same,conversion of fatty acid fed,PtELO6 (Δ6-elongase),not converted
"CCCCC/C=C\C/C=C\C/C=C\C/C=C\CCCC(=O)O [20:4^Δ5,8,11,14, arachidonic acid]",% conversion rate,TL16y2; 250 μM fatty acid fed,20.3%
same,% conversion rate,TpELO1 (Δ5-elongase),1.7%
same,Conversion of the starting materials by ELO(XI) in %,ELO(XI),15%
same,% conversion rate,TpELO3 (Δ6-elongase); 250 μM of each fatty acid fed,0%
same,Conversion rate (in %) OtElo1,OtElo1 (Δ5-elongase),10.8 ± 0.6%
same,Conversion rate (in %) OtElo1.2,OtElo1.2 (Δ5-elongase),38.0%
same,Conversion of the starting materials by ELO(Ci) in %,ELO(Ci),10%
"CC/C=C\C/C=C\C/C=C\C/C=C\C/C=C\CCCC(=O)O [20:5^Δ5,8,11,14,17, eicosapentaenoic acid]",% conversion rate,TL16y2; 50 μM fatty acid fed,41%
same,% conversion rate,TL16y2; 250 μM fatty acid fed,8%
same,% conversion rate,TpELO1 (Δ5-elongase),12.2%
same,% conversion rate,TpELO3 (Δ6-elongase); 250 μM of each fatty acid fed,0%
same,elongation of 20:5 ω3 to 22:5 ω3,OmElo3,65%
same,Conversion rate (in %) OtElo1,OtElo1 (Δ5-elongase),46.8 ± 3.6%
same,Conversion rate (in %) OtElo1.2,OtElo1.2 (Δ5-elongase),68.6%
"CCCCCC=CCC=CCC=CCC=CCCCCCC(=O)O [22:4^Δ7,10,13,16, docosatetraenoic acid]",Conversion of the starting materials by ELO(XI) in %,ELO(XI),0%
same,Conversion of the starting materials by ELO(Ci) in %,ELO(Ci),0%
same,conversion of fatty acid fed,PtELO6 (Δ6-elongase),not converted
"eicosadienoic acid [20:2^Δ11,14]",conversion of fatty acid fed,PtELO6 (Δ6-elongase),not converted
B1,Conversion rate of EPA,At3g06460,At3g06460: 3.0%
B2,elongase activity,OmELO2,no elongase activity
B3,share of the elongase product desaturated by Δ5-desaturase PtD5,[1]; to ARA and EPA (FIGS. 21 B and D),25-30%
same,PtD5 activity (desaturation of 20:4 ω3 to 20:5 ω3),[2],15%
B4,Conversion rate of EPA,At3g06470,At3g06470: 4.1%
